System: Tetranychus urticae
Experiment: Tetranychus urticae (Two Spotted Spider Mite) contact/feeding activity, adult mortality on sprayed bean plants
Type: in vivo
Description: Tetranychus urticae (Two Spotted Spider Mite)
(Contact/Feeding Activity)
Bean plants are infested with mite populations of mixed ages. 1 day after infestation, plants are treated in a spray chamber with diluted test solutions. 1 and 8 days later, samples are checked for adult mortality. 2 replicates per treatment were evaluated.
Data is not shown for experiments where there was no insect mortality when the compounds were applied alone and in combination. When a compound applied alone gave no control at a particular rate, it is assumed that lower rates of that compound alone also give no control.

SMILES: CC1(C)[C@H](C(=O)O[C@H](C#N)c2cccc(Oc3ccccc3)c2)[C@@H]1/C=C(\Cl)C(F)(F)F (racemic) [LCYH, lambda cyhalothrin]
- LCYH observed control % (LCYH alone 0.781 ppm): 0%
- LCYH observed control % (LCYH alone 1.562 ppm): 0%
- LCYH observed control % (LCYH alone 3.125 ppm): 0%
- LCYH observed control % (LCYH alone 6.25 ppm): 25%
- LCYH observed control % (LCYH alone 12.5 ppm): 75%
- LCYH observed control % (LCYH alone 25 ppm): 80%
- LCYH observed control % (LCYH alone 50 ppm): 85%
- LCYH observed control % (LCYH alone 100 ppm): 95%

SMILES: CC(C)c1cc(Oc2ccccc2)cc(C(C)C)c1NC(=S)NC(C)(C)C [DFN, diafenthiuron]
- DFN observed control % (DFN alone 1.562 ppm): 0%
- DFN observed control % (DFN alone 3.125 ppm): 0%
- DFN observed control % (DFN alone 6.25 ppm): 25%
- DFN observed control % (DFN alone 12.5 ppm): 60%
- DFN observed control % (DFN alone 25 ppm): 95%

SMILES: CN1COCN(Cc2cnc(Cl)s2)/C1=N\[N+](=O)[O-] [TMX, thiamethoxam]
- TMX observed control % (TMX alone 50 ppm): 0%
- TMX observed control % (TMX alone 100 ppm): 0%
- TMX observed control % (TMX alone 200 ppm): 0%
- TMX observed control % (TMX alone 400 ppm): 0%
